Source: ChEMBL document CHEMBL3885881, “DrugMatrix”

Organism: Rattus norvegicus
Assay: DrugMatrix - Regimen: Daily Repeat
Type: toxicity, organism-based, Sprague-Dawley
Design: regimen Daily Repeat, gender Male, age 6-8 weeks
Details: in vivo, po, route oral GAVAGE, vehicle .5 % CMC; for BASOPHIL / EOSINOPHIL / ERYTHROCYTE COUNT / HEMATOCRIT / HEMOGLOBIN / LEUKOCYTE COUNT / LYMPHOCYTE / MEAN CORPUSCULAR HEMOGLOBIN / MEAN CORPUSCULAR HEMOGLOBIN CONCENTRATION / MEAN CORPUSCULAR VOLUME / MONOCYTE / NEUTROPHIL / PLATELET COUNT: tissue Blood; for ALANINE AMINOTRANSFERASE / ALBUMIN / ALKALINE PHOSPHATASE / ASPARTATE AMINOTRANSFERASE / BLOOD UREA NITROGEN / CHLORIDE / CHOLESTEROL / CREATINE PHOSPHOKINASE / CREATININE / GLUCOSE / PHOSPHORUS / POTASSIUM / SODIUM / TOTAL BILIRUBIN / TOTAL PROTEIN: tissue Plasma
[1] = 40 mg/kg, 72 h, dose level Low, time 3 day
[2] = 40 mg/kg, 120 h, dose level Low, time 5 day
[3] = 99 mg/kg, 72 h, dose level High, time 3 day
[4] = 99 mg/kg, 120 h, dose level High, time 5 day

With `CO[C@H]1/C=C/O[C@@]2(C)Oc3c(C)c(O)c4c(O)c(c(/C=N/N5CCN(C)CC5)c(O)c4c3C2=O)NC(=O)/C(C)=C\C=C\[C@H](C)[C@H](O)[C@@H](C)[C@@H](O)[C@@H](C)[C@H](OC(C)=O)[C@@H]1C` [RIFAMPIN] the BASOPHIL [1] was 0%, the EOSINOPHIL [1] was 0% and the “ERYTHROCYTE COUNT” value [1] was 6.01 x10E6/uL. The HEMATOCRIT [1] was 36.73%, the HEMOGLOBIN [1] was 14.33 G/DL and the “LEUKOCYTE COUNT” value [1] was 9.07 x10E3/uL. The LYMPHOCYTE [1] was 88%, the “MEAN CORPUSCULAR HEMOGLOBIN” value [1] was 23.83 pg and the “MEAN CORPUSCULAR HEMOGLOBIN CONCENTRATION” value [1] was 39.03 G/DL. For the same compound, the “MEAN CORPUSCULAR VOLUME” value [1] was 61.1 fL, the MONOCYTE [1] was 2.33% and the NEUTROPHIL [1] was 9.67%. For the same compound, the “PLATELET COUNT” value [1] was 1111.33 x10E3/uL, the “ALANINE AMINOTRANSFERASE” value [1] was 36 u/L and the ALBUMIN [1] was 3.6 G/DL. The “ALKALINE PHOSPHATASE” value [1] was 274 u/L, the “ASPARTATE AMINOTRANSFERASE” value [1] was 60 u/L and the “BLOOD UREA NITROGEN” value [1] was 9 mg/dL. For the same compound, the CHLORIDE [1] was 108 MEQ/L, the CHOLESTEROL [1] was 63.33 mg/dL and the “CREATINE PHOSPHOKINASE” value [1] was 115.33 u/L. It also gave a CREATININE [1] of 0.43 mg/dL, a GLUCOSE [1] of 170.33 mg/dL and a PHOSPHORUS [1] of 11.3 mg/dL. For the same compound, the POTASSIUM [1] was 6.6 MEQ/L, the SODIUM [1] was 152.67 MEQ/L and the “TOTAL BILIRUBIN” value [1] was 0.33 mg/dL. The “TOTAL PROTEIN” value [1] was 5.73 G/DL, the BASOPHIL [2] was 0% and the EOSINOPHIL [2] was 0%. For the same compound, the “ERYTHROCYTE COUNT” value [2] was 6.22 x10E6/uL, the HEMATOCRIT [2] was 36.5% and the HEMOGLOBIN [2] was 14.57 G/DL. The “LEUKOCYTE COUNT” value [2] was 14.23 x10E3/uL, the LYMPHOCYTE [2] was 89.33% and the “MEAN CORPUSCULAR HEMOGLOBIN” value [2] was 23.47 pg. For the same compound, the “MEAN CORPUSCULAR HEMOGLOBIN CONCENTRATION” value [2] was 39.93 G/DL, the “MEAN CORPUSCULAR VOLUME” value [2] was 58.8 fL and the MONOCYTE [2] was 2.67%. For the same compound, the NEUTROPHIL [2] was 8%, the “PLATELET COUNT” value [2] was 1082.67 x10E3/uL and the “ALANINE AMINOTRANSFERASE” value [2] was 42.33 u/L. For the same compound, the ALBUMIN [2] was 3.7 G/DL, the “ALKALINE PHOSPHATASE” value [2] was 325 u/L and the “ASPARTATE AMINOTRANSFERASE” value [2] was 62.67 u/L. The “BLOOD UREA NITROGEN” value [2] was 13.67 mg/dL, the CHLORIDE [2] was 107.33 MEQ/L and the CHOLESTEROL [2] was 78.33 mg/dL. For the same compound, the “CREATINE PHOSPHOKINASE” value [2] was 142 u/L, the CREATININE [2] was 0.57 mg/dL and the GLUCOSE [2] was 180.33 mg/dL. For the same compound, the PHOSPHORUS [2] was 10.97 mg/dL, the POTASSIUM [2] was 6.63 MEQ/L and the SODIUM [2] was 150.33 MEQ/L. The “TOTAL BILIRUBIN” value [2] was 0.3 mg/dL, the “TOTAL PROTEIN” value [2] was 6.03 G/DL and the BASOPHIL [3] was 0%. The EOSINOPHIL [3] was 0.33%, the “ERYTHROCYTE COUNT” value [3] was 5.7 x10E6/uL and the HEMATOCRIT [3] was 35.03%. For the same compound, the HEMOGLOBIN [3] was 13.93 G/DL, the “LEUKOCYTE COUNT” value [3] was 12.7 x10E3/uL and the LYMPHOCYTE [3] was 89%. For the same compound, the “MEAN CORPUSCULAR HEMOGLOBIN” value [3] was 24.47 pg, the “MEAN CORPUSCULAR HEMOGLOBIN CONCENTRATION” value [3] was 39.77 G/DL and the “MEAN CORPUSCULAR VOLUME” value [3] was 61.5 fL. For the same compound, the MONOCYTE [3] was 2%, the NEUTROPHIL [3] was 8.67% and the “PLATELET COUNT” value [3] was 1047.33 x10E3/uL. The “ALANINE AMINOTRANSFERASE” value [3] was 41 u/L, the ALBUMIN [3] was 3.8 G/DL and the “ALKALINE PHOSPHATASE” value [3] was 360.33 u/L. The “ASPARTATE AMINOTRANSFERASE” value [3] was 60 u/L, the “BLOOD UREA NITROGEN” value [3] was 10.67 mg/dL and the CHLORIDE [3] was 106.67 MEQ/L. The CHOLESTEROL [3] was 93.67 mg/dL, the “CREATINE PHOSPHOKINASE” value [3] was 139 u/L and the CREATININE [3] was 0.43 mg/dL. For the same compound, the GLUCOSE [3] was 166.33 mg/dL, the PHOSPHORUS [3] was 11.6 mg/dL and the POTASSIUM [3] was 6.4 MEQ/L. For the same compound, the SODIUM [3] was 153 MEQ/L, the “TOTAL BILIRUBIN” value [3] was 0.3 mg/dL and the “TOTAL PROTEIN” value [3] was 6.1 G/DL. The BASOPHIL [4] was 0%, the EOSINOPHIL [4] was 0.33% and the “ERYTHROCYTE COUNT” value [4] was 5.79 x10E6/uL. For the same compound, the HEMATOCRIT [4] was 34.87%, the HEMOGLOBIN [4] was 13.73 G/DL and the “LEUKOCYTE COUNT” value [4] was 17.13 x10E3/uL. For the same compound, the LYMPHOCYTE [4] was 85%, the “MEAN CORPUSCULAR HEMOGLOBIN” value [4] was 23.73 pg and the “MEAN CORPUSCULAR HEMOGLOBIN CONCENTRATION” value [4] was 39.4 G/DL. For the same compound, the “MEAN CORPUSCULAR VOLUME” value [4] was 60.23 fL, the MONOCYTE [4] was 2% and the NEUTROPHIL [4] was 12.67%. For the same compound, the “PLATELET COUNT” value [4] was 1010.67 x10E3/uL, the “ALANINE AMINOTRANSFERASE” value [4] was 46 u/L and the ALBUMIN [4] was 3.6 G/DL. For the same compound, the “ALKALINE PHOSPHATASE” value [4] was 384.33 u/L, the “ASPARTATE AMINOTRANSFERASE” value [4] was 64.33 u/L and the “BLOOD UREA NITROGEN” value [4] was 11.33 mg/dL. The CHLORIDE [4] was 108.33 MEQ/L, the CHOLESTEROL [4] was 75 mg/dL and the “CREATINE PHOSPHOKINASE” value [4] was 143 u/L. It also gave a CREATININE [4] of 0.5 mg/dL, a GLUCOSE [4] of 177.67 mg/dL and a PHOSPHORUS [4] of 11.1 mg/dL. The POTASSIUM [4] was 6.3 MEQ/L, the SODIUM [4] was 149.33 MEQ/L and the “TOTAL BILIRUBIN” value [4] was 0.37 mg/dL. The “TOTAL PROTEIN” value [4] was 5.67 G/DL.
